Source: patent publication US9321762B2, “Quinazoline compounds, method for preparing the same and use thereof” (DEVELOPMENT CENTER FOR BIOTECHNOLOGY, priority 2013, dated 2016)

molecular target: T1, B-Raf kinase (Homo sapiens, UniProt P15056); assay: B-Raf kinase assay ([33P] incorporation into MEK1(K97R)); type: biochemical; settings: class symbols; 8 μM ATP; read-out: IC50 against B-Raf kinase
T1 construct: purchased Upstate Biotechnology
Procedure: Inhibition of kinase activity by a test compound disclosed herein was estimated by quantifying the amount of [^33P] incorporation of a substrate in the presence of the test compound. Standard assay conditions were 5 ng of recombinant B-Raf kinase (Upstate Biotechnology) with 500 ng MEK1(K97R) in assay buffer (8 μM ATP, 0.5 μCi [^33P]ATP (specific activity 3000 Ci/mmol, PerkinElmer), 50 mM Tris/HCl (pH7.5), and 1 mM EGTA, 1 mM Na3VO4, 1% 2-mercaptoethanol, 0.1% Brij 35, and 0.2 mg/ml BSA) in a final volume of 25 μL. Reactions were incubated at 30° C. for 30 min and stopped by adding 3% phosphoric acid, harvested onto a 96-well GF/B UniFilter (PerkinElmer) using a unifilter harvester (PerkinElmer), and counted with a TopCount microplate scintillation counter (PerkinElmer). The IC50 values of inhibitors were determined after carrying out assays at 3-fold serially diluted concentrations of each compound in duplication. The results were analyzed using linear regression software (GraphPad Prism 4; GraphPad Software Inc.).

T1 sequence (P15056 whole entry): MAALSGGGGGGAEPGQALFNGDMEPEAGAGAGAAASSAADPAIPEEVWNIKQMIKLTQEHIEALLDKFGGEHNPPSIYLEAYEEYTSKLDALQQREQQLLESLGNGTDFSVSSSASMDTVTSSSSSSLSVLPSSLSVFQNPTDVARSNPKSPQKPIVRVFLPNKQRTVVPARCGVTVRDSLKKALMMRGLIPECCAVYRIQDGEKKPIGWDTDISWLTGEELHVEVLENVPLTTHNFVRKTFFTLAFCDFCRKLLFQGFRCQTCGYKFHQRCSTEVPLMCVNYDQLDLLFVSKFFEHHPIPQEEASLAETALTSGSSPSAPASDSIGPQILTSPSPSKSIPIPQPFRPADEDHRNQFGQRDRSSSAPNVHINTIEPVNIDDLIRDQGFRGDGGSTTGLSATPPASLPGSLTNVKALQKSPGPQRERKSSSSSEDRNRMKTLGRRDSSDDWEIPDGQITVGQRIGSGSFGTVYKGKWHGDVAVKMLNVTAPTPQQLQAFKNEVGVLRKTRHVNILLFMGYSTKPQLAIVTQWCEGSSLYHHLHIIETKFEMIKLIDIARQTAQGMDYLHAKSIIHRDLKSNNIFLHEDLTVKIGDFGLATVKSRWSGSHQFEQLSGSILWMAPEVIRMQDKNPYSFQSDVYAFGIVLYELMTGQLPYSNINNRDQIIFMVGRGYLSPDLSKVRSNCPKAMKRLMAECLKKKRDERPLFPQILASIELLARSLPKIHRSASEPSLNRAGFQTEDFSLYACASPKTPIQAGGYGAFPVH

`CS(=O)(=O)Nc1ccc(F)c(Nc2ncnc3ccc(-c4cccnc4F)cc23)c1F` [compound 10, N-(2,4-difluoro-3-(6-(2-fluoropyridin-3-yl)quinazolin-4-ylamino)phenyl)methanesulfonamide] and `CCS(=O)(=O)Nc1ccc(F)c(Nc2ncnc3ccc(-c4cccnc4F)cc23)c1F` [compound 19, N-(2,4-difluoro-3-(6-(2-fluoropyridin-3-yl)quinazolin-4-ylamino)phenyl)ethanesulfonamide] fall in the same range of IC50: 1 to 10 µM for the first, 1 to 10 µM for the second.

`CCCS(=O)(=O)N(C)c1ccc(F)c(N(C)c2ncnc3ccc(-c4cccnc4F)cc23)c1F` [compound 53, N-(2,4-difluoro-3-((6-(2-fluoropyridin-3-yl)-quinazolin-4-yl)(methyl)amino)phenyl)-N-methylpropane-1-sulfonamide] and `CCCS(=O)(=O)Nc1ccc(F)c(Oc2ncnc3ccc(-c4cccnc4F)cc23)c1F` [compound 34, N-(2,4-difluoro-3-(6-(2-fluoropyridin-3-yl)-quinazolin-4-yloxy)phenyl)propane-1-sulfonamide] fall in the same range of IC50: 0.3 to 1 µM for the first, 0.3 to 1 µM for the second.

`CCCS(=O)(=O)Nc1c(F)ccc(Nc2ncnc3ccc(-c4ccncc4)cc23)c1F` [compound 17, N-(2,6-difluoro-3-(6-(pyridin-4-yl)quinazolin-4-ylamino)phenyl)propane-1-sulfonamide] and `CCCS(=O)(=O)Nc1ccc(F)c(Nc2ncnc3cc(OC)c(-c4ccncc4)cc23)c1F` [compound 30, N-(2,4-difluoro-3-(7-methoxy-6-(pyridin-4-yl)quinazolin-4-ylamino)phenyl)propane-1-sulfonamide] fall in the same range of IC50: 1 to 10 µM for the first, 1 to 10 µM for the second.

First: CCCS(=O)(=O)Nc1ccc(F)c(Nc2ncnc3ccc(-c4ccc[nH]c4=O)cc23)c1F [compound 26, N-(2,4-difluoro-3-(6-(2-oxo-1,2-dihydropyridin-3-yl)quinazolin-4-ylamino)phenyl)propane-1-sulfonamide]
Second: CCCS(=O)(=O)Nc1ccc(F)c(Nc2ncnc3ccc(-c4cccnc4C#N)cc23)c1F [compound 64, N-(3-(6-(2-cyanopyridin-3-yl)quinazolin-4-ylamino)-2,4-difluorophenyl)propane-1-sulfonamide]
The IC50 of the first is higher: 1 to 10 µM for the first, 0.3 to 1 µM for the second.

`CCCS(=O)(=O)Nc1ccc(F)c(Nc2ncnc3ccc(-c4ccc(OCCOC)nc4)cc23)c1F` [compound 33, N-(2,4-difluoro-3-(6-(6-(2-methoxyethoxy)pyridin-3-yl)quinazolin-4-ylamino)phenyl)propane-1-sulfonamide] and `CCCS(=O)(=O)Nc1ccc(F)c(Nc2ncnc3ccc(-c4cnc(OC)c(N)c4)cc23)c1F` [compound 60, N-(3-(6-(5-amino-6-methoxypyridin-3-yl)quinazolin-4-ylamino)-2,4-difluorophenyl)propane-1-sulfonamide] fall in the same range of IC50: 0.3 to 1 µM for the first, 0.3 to 1 µM for the second.

`CCCS(=O)(=O)Nc1ccc(F)c(Nc2ncnc3ccc(-c4cccnc4F)cc23)c1` [compound 6, N-(4-fluoro-3-(6-(2-fluoropyridin-3-yl)-quinazolin-4-ylamino)phenyl)propane-1-sulfonamide] and `CCCS(=O)(=O)Nc1ccc(F)c(Nc2ncnc3ccc(-c4cccnc4OC)cc23)c1F` [compound 23, N-(2,4-difluoro-3-(6-(2-methoxypyridin-3-yl)quinazolin-4-ylamino)phenyl)propane-1-sulfonamide] fall in the same range of IC50: 1 to 10 µM for the first, 1 to 10 µM for the second.

First: CC(C)S(=O)(=O)Nc1ccc(F)c(Nc2ncnc3ccc(-c4cccnc4F)cc23)c1F [compound 20, N-(2,4-difluoro-3-(6-(2-fluoropyridin-3-yl)quinazolin-4-ylamino)phenyl)propane-2-sulfonamide]
Second: CCCS(=O)(=O)Nc1ccc(F)c(Nc2ncnc3ccc(-c4cccnc4F)c(F)c23)c1F [compound 56, N-(2,4-difluoro-3-(5-fluoro-6-(2-fluoropyridin-3-yl)quinazolin-4-ylamino)phenyl)propane-1-sulfonamide]
The IC50 of the first is higher: 1 to 10 µM for the first, 0.3 to 1 µM for the second.

`CCCS(=O)(=O)Nc1ccc(F)c(Nc2ncnc3ccc(-c4cccc(N5CCOCC5)n4)cc23)c1F` [compound 41, N-(2,4-difluoro-3-(6-(6-morpholinopyridin-2-yl)quinazolin-4-ylamino)phenyl)propane-1-sulfonamide] and `CCCS(=O)(=O)Nc1ccc(F)c(Nc2ncnc3ccc(-c4cccc(N)n4)cc23)c1F` [compound 61, N-(3-(6-(6-aminopyridin-2-yl)quinazolin-4-ylamino)-2,4-difluorophenyl)propane-1-sulfonamide] fall in the same range of IC50: 0.3 to 1 µM for the first, 0.3 to 1 µM for the second.

`CCCS(=O)(=O)Nc1ccc(F)c(Nc2ncnc3ccc(-n4ccnc4)cc23)c1F` [compound 43, N-(3-(6-(1H-imidazol-1-yl)quinazolin-4-ylamino)-2,4-difluorophenyl)propane-1-sulfonamide] and `C#Cc1ccc2ncnc(Nc3c(F)ccc(NS(=O)(=O)CCC)c3F)c2c1` [compound 49, N-(3-(6-ethynylquinazolin-4-ylamino)-2,4-difluorophenyl)propane-1-sulfonamide] fall in the same range of IC50: 1 to 10 µM for the first, 1 to 10 µM for the second.

`CCCS(=O)(=O)Nc1ccc(F)c(Nc2ncnc3ccc(N4CCOCC4)cc23)c1F` [compound 42, N-(2,4-difluoro-3-(6-morpholinoquinazolin-4-ylamino)phenyl)propane-1-sulfonamide] showed an IC50 of 1 to 10 µM.

same assay, conditions: given as bound; 8 μM ATP; read-out: IC50 against B-Raf kinase

`CCCS(=O)(=O)Nc1cc(Nc2ncnc3ccc(-c4cccnc4F)cc23)c(F)cc1F` [compound 11, N-(2,4-difluoro-5-(6-(2-fluoropyridin-3-yl)-quinazolin-4-ylamino)phenyl)propane-1-sulfonamide] and `CCCS(=O)(=O)Nc1c(F)ccc(Nc2ncnc3ccc(-c4cccnc4F)cc23)c1F` [compound 16, N-(2,6-difluoro-3-(6-(2-fluoropyridin-3-yl)quinazolin-4-ylamino)phenyl)propane-1-sulfonamide] cannot be ordered by IC50: > 10 µM for the first, > 10 µM for the second.

`CCCS(=O)(=O)Nc1ccc(F)c(Nc2ncnc3ccc(-c4c[nH]nn4)cc23)c1F` [compound 52, N-(3-(6-(1H-1,2,3-triazol-4-yl)quinazolin-4-ylamino)-2,4-difluorophenyl)propane-1-sulfonamide] and `CCCS(=O)(=O)Nc1ccc(F)c(Nc2ncnc3ccc(-c4cccnc4)cc23)c1F` [compound 5, N-(2,4-difluoro-3-(6-(pyridin-3-yl)-quinazolin-4-ylamino)phenyl)propane-1-sulfonamide] cannot be ordered by IC50: > 10 µM for the first, > 10 µM for the second.

`O=S1(=O)CCCN1c1ccc(F)c(Nc2ncnc3ccc(-c4cccnc4F)cc23)c1F` [compound 55, N-(2,4-difluoro-3-(6-(2-fluoropyridin-3-yl)quinazolin-4-ylamino)phenyl)propanesultam] and `CCCS(=O)(=O)Oc1ccc(F)c(Nc2ncnc3ccc(-c4cccnc4F)cc23)c1F` [compound 40, 2,4-difluoro-3-(6-(2-fluoropyridin-3-yl)quinazolin-4-ylamino)phenyl propane-1-sulfonate] cannot be ordered by IC50: > 10 µM for the first, > 10 µM for the second.

`CCCS(=O)(=O)Nc1ccc(F)c(Nc2ncnc3ccc(-n4cnc5ccccc54)cc23)c1F` [compound 47, N-(3-(6-(1H-benzo[d]imidazol-1-yl)-quinazolin-4-ylamino)-2,4-difluorophenyl)propane-1-sulfonamide] and `CCCS(=O)(=O)Nc1ccc(F)c(Nc2ncnc3cc(NCCN(C)C)c(-c4ccncc4)cc23)c1F` [compound 22, N-(3-(7-(2-(dimethylamino)ethylamino)-6-(pyridin-4-yl)quinazolin-4-ylamino)-2,4-difluorophenyl)propane-1-sulfonamide] cannot be ordered by IC50: > 10 µM for the first, > 10 µM for the second.
